Experimental data taken from patent EP0038117A1, “Methods for preparing anti-hypertensive agents” (UNIVERSITY OF MIAMI, priority 1980, dated 1981).

Assay: Stability of aqueous solution on standing under ambient conditions (loss of inhibitory activity)
Format: physicochemical
Conditions: 1 mg per ml, pH of about 8, standing for as little as 30 minutes

C[C@H](CS)C(=O)N1CCC[C@H]1C(=O)O [SQ14225, D-3-mercapto-2-methylpropanoyl-L-proline]
activity of fresh aqueous solution upon standing: substantially less active
